Reference: patent US12497405B2, “Bicyclic heterocycle compounds methods of use thereof for the treatment of herpes viruses” (Merck Sharp & Dohme LLC, priority 2019, dated 2025)
Where two headings read alike, the source gives them in different places.

Key:
[1] = target: varicella zoster virus DNA polymerase (Varicella-zoster virus (strain Dumas) (HHV-3) (Human herpesvirus 3), UniProt P09252); assay: VZV polymerase assay (AlphaLISA); type: biochemical; details: VZV polymerase 0.4 nM, 30 min pre-incubation, 60 minute at 37° C.
How it was run: (§1)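 Baculovirus/SF21-expressed polymerase (HCMV 0.2 nM, VZV 0.4 nM final) was preincubated 30 min at room temperature with compound in HEPES pH 7.5/Mg buffer. Reactions with 1.6 nM DIG-primer/template, low nM dNTPs and biotin-dUTP ran 60 min at 37 °C. AlphaLISA readout, normalized to controls, 4-parameter IC50.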

CMV = assay: Viral qPCR assay, CMV; type: cell-based; details: infected cells, viral genome copies by qPCR normalized to PPIA, read-out: CMV Cell EC50
How it was run: (§2)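 EC50 reflects inhibition of viral DNA copies relative to PPIA after roughly 72 hrs of infection in MRC5, Vero or MeWo cells. Copy numbers were derived by TaqMan qPCR from a plasmid standard curve.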

HSV2 = assay: Viral qPCR assay, HSV2; type: cell-based; details: infected cells, viral genome copies by qPCR normalized to PPIA, read-out: HSV2 Cell EC50
How it was run: as §2

HSV1 = assay: Viral qPCR assay, HSV1; type: cell-based; details: infected cells, viral genome copies by qPCR normalized to PPIA, read-out: HSV1 Cell EC50
How it was run: as §2

[2] = target: Human cytomegalovirus DNA polymerase (Human cytomegalovirus (strain AD169) (HHV-5) (Human herpesvirus 5), UniProt P08546); assay: CMV polymerase assay (AlphaLISA); type: biochemical; details: HCMV polymerase 0.2 nM, 30 min pre-incubation, 60 minute at 37° C.
How it was run: as §1

Structure (SMILES) | IC50 [1] [nM] | EC50 (CMV; Human betaherpesvirus 5, 72 h) [nM] | EC50 (HSV2; Human alphaherpesvirus 2, 72 h) [nM] | EC50 (HSV1; Human alphaherpesvirus 1, 72 h) [nM] | IC50 [2] [nM] | EC50 (CMV; ~72 hrs) [nM] | EC50 (HSV2; ~72 hrs) [nM] | EC50 (HSV1; ~72 hrs) [nM]
Cc1nc2cc(-c3cn4c(n3)CN(C)CC4)c(O[C@H]3CCN4C(=O)OC[C@@H]4C3)cc2c(=O)n1Cc1ccc(C#N)cc1 [Example 87] | 0.8 | 198 | 275 | 313 | 0.44 | – | – | –
CC(=O)N1CCC(Oc2ccc3ccn(Cc4ccc(Cl)cc4)c(=O)c3c2)CC1 [Example 22] | 71 | 4240 | 4280 | 5630 | 386 | – | – | –
CC(O)Cc1nc2ccn(Cc3ccc(Cl)cc3)c(=O)c2cc1O[C@H]1CCN2C(=O)OC[C@@H]2C1 (single isomer, unassigned) [Example 33] | 13 | 156 | 234 | 266 | 7.4 | – | – | –
Cc1nc2cc(-c3cnn(C(F)F)c3)c(O[C@H]3CCN4C(=O)OC[C@@H]4C3)cc2c(=O)n1Cc1ccc(C#N)c(F)c1 [Example 66] | 4.8 | 50 | 34 | 43 | 2.2 | – | – | –
Cc1nc2cc(-c3cnco3)c(O[C@H]3CCN4C(=O)OC[C@@H]4C3)cc2c(=O)n1Cc1ccc(C#N)cc1 [Example 60] | 0.44 | 53 | 40 | 84 | 0.82 | – | – | –
Cc1nc2cc(-c3nc4n(n3)CCN(C)C4)c(O[C@H]3CCN4C(=O)OC[C@@H]4C3)cc2c(=O)n1Cc1ccc(Cl)cc1 [Example 81] | 27 | 265 | 307 | 364 | 15 | – | – | –
Cc1nc2cc(-c3cnn(C(F)F)c3)c(O[C@H]3CCN4C(=O)OC[C@@H]4C3)cc2c(=O)n1Cc1ccc(C#N)cc1F [Example 64] | 8.9 | 64 | 51 | 71 | 2.5 | – | – | –
CC(C)(N)Cc1cc2ccn(Cc3ccc(Cl)cc3)c(=O)c2cc1O[C@H]1CCN2C(=O)OC[C@@H]2C1 [Example 32] | 33 | 392 | 402 | 772 | 15 | – | – | –
O=C1OC[C@@H]2C[C@@H](Oc3cc(-c4cnco4)c4ncn(Cc5ccc(Cl)cc5)c(=O)c4c3)CCN12 [Example 42] | 13 | 181 | 92 | 233 | 21 | – | – | –
Cc1nc2cc(-c3cnco3)c(O[C@H]3CCN4C(=O)OC[C@@H]4C3)cc2c(=O)n1Cc1ccc(Cl)cc1 [Example 51] | 0.44 | 21 | 16 | 26 | 0.22 | – | – | –
O=C1OC[C@@H]2C[C@@H](Oc3cnc4c(C5CC5)cn(Cc5ccc(Cl)cc5)c(=O)c4c3)CCN12 [Example 1] | 75 | – | – | – | 69 | 1040 | 1540 | 2700
Cc1nc2cc(-c3cnc(N4CCOCC4)nc3)c(O[C@H]3CCN4C(=O)OC[C@@H]4C3)cc2c(=O)n1Cc1ccc(Cl)cc1 [Example 97] | 15 | 198 | 96 | 163 | 14 | – | – | –
O=C1OC[C@@H]2C[C@@H](Oc3cc4c(=O)n(Cc5ccc(Cl)cc5)cnc4nc3-c3cnn(C(F)F)c3)CCN12 [Example 36] | 1.5 | 37 | 28 | 49 | 1.9 | – | – | –
COc1ccc(-c2cc3nc(C)n(Cc4ccc(Cl)cc4)c(=O)c3cc2O[C@H]2CCN3C(=O)OC[C@@H]3C2)nn1 [Example 14] | 14 | – | – | – | 13 | 280 | 268 | 374
Cc1nc2cc(C3CC(C)(O)C3)c(O[C@H]3CCN4C(=O)OC[C@@H]4C3)cc2c(=O)n1Cc1ccc(Cl)cc1 (single isomer, unassigned) [Example 77] | 3.4 | 217 | 165 | 157 | 3.1 | – | – | –
Cc1nc2cc(-c3cn4c(n3)CNCC4)c(O[C@H]3CCN4C(=O)OC[C@@H]4C3)cc2c(=O)n1Cc1ccc(C#N)cc1 [Example 73] | 5.2 | 4180 | 3020 | 3880 | 1 | – | – | –
Cc1nc2cc(C3CC(N)C3)c(O[C@H]3CCN4C(=O)OC[C@@H]4C3)cc2c(=O)n1Cc1ccc(C#N)cc1 (single isomer, unassigned) [Example 83] | 20 | 4600 | 21000 | 6690 | 19 | – | – | –
Cc1nc2cc(-c3cc4n(n3)CCN(CC(F)(F)F)C4)c(O[C@H]3CCN4C(=O)OC[C@@H]4C3)cc2c(=O)n1Cc1ccc(Cl)cc1 [Example 147] | 12 | 229 | 96 | 274 | 7 | – | – | –
COc1ncc(-c2cc3nc(C)n(Cc4ccc(C#N)cc4)c(=O)c3cc2O[C@H]2CCN3C(=O)OC[C@@H]3C2)cn1 [Example 75] | 23 | 164 | 413 | 381 | 29 | – | – | –
CC(C)(O)Cc1cc2ccn(Cc3ccc(Cl)cc3)c(=O)c2cc1O[C@H]1CCN2C(=O)OC[C@@H]2C1 [Example 34] | 1.4 | 74 | 81 | 110 | 2.1 | – | – | –
Cc1nc2ccc(O[C@H]3CCN4C(=O)OC[C@@H]4C3)cc2c(=O)n1Cc1ccc(Cl)cc1 [Example 40] | 17 | 157 | 304 | 386 | 11 | – | – | –
Cc1ncc(-c2cc3nc(C)n(Cc4ccc(Cl)cc4)c(=O)c3cc2O[C@H]2CCN3C(=O)OC[C@@H]3C2)cn1 [Example 90] | 16 | 241 | 115 | 214 | 18 | – | – | –
O=C1OC[C@@H]2C[C@@H](Oc3ccc4ncn(Cc5ccc(Cl)cc5)c(=O)c4c3)CCN12 [Example 24] | 35 | 216 | 342 | 501 | 27 | – | – | –
COc1nc2cc(-c3cnco3)c(O[C@H]3CCN4C(=O)OC[C@@H]4C3)cc2c(=O)n1Cc1ccc(C#N)cc1 [Example 9] | 0.44 | – | – | – | 0.44 | 35 | 13 | 20
Cc1nc2cc(-c3cn(C(F)F)cn3)c(O[C@H]3CCN4C(=O)OC[C@@H]4C3)cc2c(=O)n1Cc1ccc(Cl)cc1 [Example 82] | 7.1 | 52 | 45 | 63 | 5.5 | – | – | –
Cc1nc2cc(-c3cn(C(F)F)nn3)c(O[C@H]3CCN4C(=O)OC[C@@H]4C3)cc2c(=O)n1Cc1ccc(Cl)cc1 [Example 12] | 0.47 | – | – | – | 0.47 | 112 | 61 | 73
O=C1OC[C@@H]2C[C@@H](Oc3cc(CO)c4ncn(Cc5ccc(Cl)cc5)c(=O)c4c3)CCN12 [Example 46] | 20 | 174 | 334 | 423 | 24 | – | – | –
